Assay [1] concerns the target PSG (PSD-95). The assay is described as follows: FP saturation binding of FITC-15 AA CRIPT probe. The conditions noted are these: read-out: Kd probe, 5 nM FITC-15 AA CRIPT, room temperature, PSG WT.
Assay [2] has as its target PSG G322A G335A (PSD-95). The assay is described as follows: FP saturation binding of FITC-15 AA CRIPT probe. Conditions: read-out: Kd probe, 5 nM FITC-15 AA CRIPT, room temperature.
A further assay deals with PDZ1-2 (PSD-95). As to the kind of experiment: Isothermal titration calorimetry. It is filed as binding. Conditions: ITC. In general terms: Isothermal titration calorimetry measures the heat released or taken up as one component is titrated into another.
Another assay has as its target PSG F325A (PSD-95). As to the kind of experiment: FP displacement (competition) of FITC-15 AA CRIPT by library peptide, IC50 and Ki. Conditions: FP displacement of FITC-15 AA CRIPT probe by PSD library peptide, protein PSG F325A.
Another assay concerns the target PSG G335A (PSD-95). The assay is described as above. Conditions: FP displacement of FITC-15 AA CRIPT probe by PSD library peptide, protein PSG G335A.
The target in assay [3] is PSG G322A G335A (PSD-95). The description is as above. Conditions: FP displacement of FITC-15 AA CRIPT probe by PSD library peptide, protein PSG G322A G335A.
In another assay the target is PSG G322A (PSD-95). The assay is described as above. Conditions: FP displacement of FITC-15 AA CRIPT probe by PSD library peptide, protein PSG G322A.
The target of assay [4] is PSG (PSD-95). Described as above.

Like-named read-outs stand apart in the source and are kept apart here.

Broadly, the Kd is a measure of binding affinity in units of concentration. The IC50 is the midpoint of a concentration-inhibition curve. By Ki is commonly meant the dissociation constant of the complex between target and ligand, obtained from inhibition or displacement.

Consider `CC(C)C[C@H](NC(=O)[C@@H](NC(=O)[C@H](CCCCN)NC(=O)[C@H](CCCCN)NC(=O)[C@H](Cc1ccc(O)cc1)NC(=S)Nc1ccc2c(c1)C(=O)OC21c2ccc(O)cc2Oc2cc(O)ccc21)C(C)C)C(=O)N[C@@H](CC(=O)O)C(=O)N[C@H](C(=O)N[C@@H](CCCCN)C(=O)N[C@@H](CC(N)=O)C(=O)N[C@@H](Cc1ccc(O)cc1)C(=O)N[C@@H](CCCCN)C(=O)N[C@@H](CCC(N)=O)C(=O)N[C@H](C(=O)N[C@@H](CO)C(=O)N[C@H](C(=O)O)C(C)C)[C@@H](C)O)[C@@H](C)O` [FITC-15 AA CRIPT], for which the Kd was found to be 2200 ± 220 nM at PSG (PSD-95) [1] and 160 ± 20 nM at PSG G322A G335A (PSD-95) [2].
With “FL CC ADGRB1: expressed full-length coiled-coil C-terminal part of ADGRB1, residues 1,471–1,584”, the “Higher affinity for PDZ1-2 in comparison with PSG WT” value in the assay on PDZ1-2 (PSD-95) worked out at 3 fold.
As to `CC[C@H](C)[C@H](NC(=O)[C@H](CCCCN)NC(=O)[C@@H]1CCCN1C(=O)[C@H](CC(C)C)NC(=O)[C@H](CCCNC(=N)N)NC(=O)[C@H](Cc1c[nH]cn1)NC(=O)[C@H](CO)NC(=O)CNC(=O)[C@H](CC(=O)O)NC(=O)[C@H](Cc1ccc(O)cc1)NC(C)=O)C(=O)N[C@@H](CCCCN)C(=O)N[C@@H](CCC(=O)O)C(=O)N[C@H](C(=O)N[C@H](C(=O)N[C@H](C(=O)O)C(C)C)[C@@H](C)O)[C@@H](C)O` [FRPD4], the 50% inhibitory concentration (IC50) was determined as 18 µM on PSG F325A (PSD-95) (read-out: IC50 (µM), PSG F325A); 2.55 µM on PSG G335A (PSD-95) (read-out: IC50 (µM), PSG G335A); 2.47 µM at PSG G322A G335A (PSD-95) [3] (read-out: IC50 (µM), PSG G322A G335A); 3.4 µM at PSG G322A (PSD-95) (read-out: IC50 (µM), PSG G322A); 6 µM at PSG (PSD-95) [4] (read-out: IC50 (µM), PSG, FP displacement of FITC-15 AA CRIPT probe by PSD library peptide, protein PSG (wild type)). The Ki is 9 µM on PSG F325A (PSD-95) (read-out: Ki (µM), PSG F325A); 0.753 µM at PSG G335A (PSD-95) (read-out: Ki (µM), PSG G335A); 0.777 µM at PSG G322A G335A (PSD-95) [3] (read-out: Ki (µM), PSG G322A G335A); 1.33 µM on PSG G322A (PSD-95) (read-out: Ki (µM), PSG G322A); < 75 µM on PSG (PSD-95) [4] (FP displacement of 5 nM FITC-15 AA CRIPT by non-labeled acetylated peptide, room temperature, Ki from IC50, technical triplicates, PSG); 2.43 µM on PSG (PSD-95) [4] (read-out: Ki (µM), PSG, FP displacement of FITC-15 AA CRIPT probe by PSD library peptide, protein PSG (wild type)).

The record behind these values is paper PMC9490041, “Determinants of affinity, specificity, and phase separation in a supramodule from Post-synaptic density protein 95” (iScience, 2022).
